Molecules are shown by their SMILES. Like-named read-outs stand apart in the source and are kept apart here.

Test [1] has as its target T1, rat mGluR5 receptor (Rattus norvegicus, UniProt P31424).
T1 construct: expressed in transfected cells; host or cells: HEK-293
As to the kind of experiment: [3H]-MPEP displacement binding assay, HEK-293 cell membranes expressing rat mGluR5. Conditions: [3H]-MPEP displacement, read-out: Median Ki. Put shortly: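 Membranes from HEK-293 cells expressing rat mGluR5 (12-25 μg protein), incubated 60 min at room temperature with 4 nM [3H]-MPEP in 50 mM Tris pH 7.5, then filtered. Nonspecific binding defined with 10 μM MPEP.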

Test [2] concerns the target T2, mGluR5 (Rattus norvegicus, UniProt P31424). In words: IC50 column under 'Biological Activity' (assay not identified in the shown text; not the binding Ki).
Test [3] concerns the target T2, mGluR5. The description is as above. This is another data set of the same source.

T1 sequence (P31424 21-1203): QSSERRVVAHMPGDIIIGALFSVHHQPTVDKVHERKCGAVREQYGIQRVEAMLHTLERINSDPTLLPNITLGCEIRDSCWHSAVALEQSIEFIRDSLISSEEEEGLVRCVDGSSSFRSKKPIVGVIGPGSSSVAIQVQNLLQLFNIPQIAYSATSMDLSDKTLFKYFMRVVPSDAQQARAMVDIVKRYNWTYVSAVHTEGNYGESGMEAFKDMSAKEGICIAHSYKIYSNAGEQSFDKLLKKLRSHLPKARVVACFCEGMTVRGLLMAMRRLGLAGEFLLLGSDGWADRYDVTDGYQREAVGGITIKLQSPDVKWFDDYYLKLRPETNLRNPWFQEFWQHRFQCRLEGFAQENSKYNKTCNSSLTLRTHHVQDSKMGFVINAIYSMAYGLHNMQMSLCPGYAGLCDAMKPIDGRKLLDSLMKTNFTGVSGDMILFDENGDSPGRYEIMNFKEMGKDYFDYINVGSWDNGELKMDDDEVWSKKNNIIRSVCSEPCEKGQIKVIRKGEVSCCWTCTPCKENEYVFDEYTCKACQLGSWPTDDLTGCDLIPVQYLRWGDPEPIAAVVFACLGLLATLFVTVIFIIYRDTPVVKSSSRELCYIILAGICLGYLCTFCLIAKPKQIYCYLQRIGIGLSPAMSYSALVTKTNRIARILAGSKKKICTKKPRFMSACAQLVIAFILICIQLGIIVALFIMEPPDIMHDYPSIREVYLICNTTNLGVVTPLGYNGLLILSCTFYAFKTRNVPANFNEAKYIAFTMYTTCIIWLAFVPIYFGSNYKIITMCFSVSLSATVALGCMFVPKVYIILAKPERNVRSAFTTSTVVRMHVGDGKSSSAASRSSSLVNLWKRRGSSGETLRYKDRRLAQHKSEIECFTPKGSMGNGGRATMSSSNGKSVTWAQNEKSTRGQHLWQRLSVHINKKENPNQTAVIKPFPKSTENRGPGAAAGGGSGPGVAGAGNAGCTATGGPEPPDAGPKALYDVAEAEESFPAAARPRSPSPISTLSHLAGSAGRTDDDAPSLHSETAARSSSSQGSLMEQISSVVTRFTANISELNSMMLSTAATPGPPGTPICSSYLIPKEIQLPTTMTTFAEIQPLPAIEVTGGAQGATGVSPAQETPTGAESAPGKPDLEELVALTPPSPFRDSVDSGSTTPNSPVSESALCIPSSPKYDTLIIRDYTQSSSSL
T2 sequence (P31424 21-1203): as above

For `COc1ccc(C(=O)N2CCN(c3ncccn3)CC2)cc1C#Cc1cccc(C#N)c1` [Compound 361, 3-({2-methoxy-5-[(4-pyrimidin-2-ylpiperazin-1-yl)carbonyl]phenyl}ethynyl)benzonitrile], the Ki in test [1] (rat mGluR5) was determined as 64 nM. In test [2], this compound returned an IC50 of 56 nM.

Turning to `COc1ccc(C(=O)N2CCN(c3ncccn3)CC2)cc1C#Cc1ccc(F)cc1` [Compound 362, 2-(4-{3-[(4-fluorophenyl)ethynyl]-4-methoxybenzoyl}piperazin-1-yl)pyrimidine], the Ki in test [1] (rat mGluR5) is 68 nM. This compound gave an IC50 in test [2] of 1450 nM.

In the case of `O=C(c1ccc(C(F)(F)F)c(C#Cc2ccccn2)c1)N1CCN(c2ccccn2)CC1` [Compound 369, 1-pyridin-2-yl-4-{[3-(pyridin-2-ylethynyl)-4-(trifluoromethyl)phenyl]carbonyl}piperazine], the Ki in test [1] (rat mGluR5 membranes) amounted to 31 nM. The compound also registered an IC50 in test [3] of 30 nM.

As to `COc1ccnc(N2CCN(C(=O)c3ccc(C(F)(F)F)c(C#Cc4ccccn4)c3)CC2)n1` [Compound 373, 4-methoxy-2-(4-{[3-(pyridin-2-ylethynyl)-4-(trifluoromethyl)phenyl]carbonyl}piperazin-1-yl)pyrimidine], the Ki in test [1] (rat mGluR5 membranes) was found to be 40 nM. In test [3], this compound displayed an IC50 of 34 nM.

Regarding `O=C(c1ccc(C(F)(F)F)c(C#Cc2ccccn2)c1)N1CCN(c2noc3ccccc23)CC1` [Compound 374, 3-(4-{[3-(pyridin-2-ylethynyl)-4-(trifluoromethyl)phenyl]carbonyl}piperazin-1-yl)-1,2-benzisoxazole], in test [1] (rat mGluR5 membranes), the Ki is 4 nM. The same compound displayed an IC50 in test [3] of 53 nM.

`O=C(c1ccc(C(F)(F)F)c(C#Cc2ccccn2)c1)N1CCN(C(=O)c2ccco2)CC1` [Compound 375, 1-(furan-2-ylcarbonyl)-4-{[3-(pyridin-2-ylethynyl)-4-(trifluoromethyl)phenyl]carbonyl}piperazine]: the Ki in test [1] (rat mGluR5 membranes) came to 29 nM. The compound also returned an IC50 in test [3] of 40 nM.

For `O=C(c1ccc(C(F)(F)F)c(C#Cc2ccccn2)c1)N1CCN(c2nccs2)CC1` [Compound 378, 1-{[3-(pyridin-2-ylethynyl)-4-(trifluoromethyl)phenyl]carbonyl}-4-(1,3-thiazol-2-yl)piperazine], in test [1] (rat mGluR5 membranes), the Ki turned out to be 49 nM. In addition, the IC50 in test [3] came to 43 nM.

As to `COc1nc(N2CCN(C(=O)c3ccc(OC(F)F)c(C#Cc4ccccn4)c3)CC2)ncc1Br` [Compound 382, 5-bromo-2-(4-{[4-(difluoromethoxy)-3-(pyridin-2-ylethynyl)phenyl]carbonyl}piperazin-1-yl)-4-methoxy pyrimidine], in test [1] (rat mGluR5 membranes), the Ki came out at 35 nM. This compound also yielded an IC50 in test [3] of 104 nM.

Consider `O=C(c1ccc(OC(F)F)c(C#Cc2ccccn2)c1)N1CCN(c2nsc3ccccc23)CC1` [Compound 383, 3-(4-{[4-(difluoromethoxy)-3-(pyridin-2-ylethynyl)phenyl]carbonyl}piperazin-1-yl)-1,2-benzisothiazole], for which the Ki in test [1] (rat mGluR5 membranes) was 1 nM. In addition, the IC50 in test [3] was determined as 41 nM.

With `O=C(c1ccc(OC(F)F)c(C#Cc2ccccn2)c1)N1CCN(c2noc3ccccc23)CC1` [Compound 384, 3-(4-{[4-(difluoromethoxy)-3-(pyridin-2-ylethynyl)phenyl]carbonyl}piperazin-1-yl)-1,2-benzisoxazole], in test [1] (rat mGluR5 membranes), the inhibitory constant (Ki) stood at 1 nM. Moreover, the IC50 in test [3] stood at 16 nM.

On to `O=C(c1ccc(OC(F)F)c(C#Cc2ccccn2)c1)N1CCN(c2ccccn2)CC1` [Compound 385, 1-{[4-(Difluoromethoxy)-3-(pyridin-2-ylethynyl)phenyl]carbonyl}-4-pyridin-2-ylpiperazin], for which the Ki in test [1] (rat mGluR5 membranes) was 7 nM. The IC50 in test [3] came out at 13 nM.

For the compound `O=C(c1ccc(Cl)c(C#Cc2ccccn2)c1)N1CCN(c2ccccn2)CC1` [Compound 386, 1-[4-chloro-3-(pyridin-2-ylethynyl)benzoyl]-4-pyridin-2-ylpiperazin], the Ki in test [1] (rat mGluR5 membranes) came to 3 nM. The compound also came in with an IC50 in test [3] of 39 nM.

As to `O=C(c1ccc(Cl)c(C#Cc2ccccn2)c1)N1CCN(c2ncccn2)CC1` [Compound 387, 2-{4-[4-chloro-3-(pyridin-2-ylethynyl)benzoyl]piperazin-1-yl}pyrimidine], the Ki in test [1] (rat mGluR5 membranes) was found to be 10 nM. The same compound had a half-maximal inhibitory concentration (IC50) in test [3] of 131 nM.

As to `O=C(c1ccc(Cl)c(C#Cc2ccccn2)c1)N1CCN(c2cnccn2)CC1` [Compound 388, 2-{4-[4-chloro-3-(pyridin-2-ylethynyl)benzoyl]piperazin-1-yl}pyrazine], in test [1] (rat mGluR5 membranes), the inhibition constant (Ki) amounted to 13 nM. Further, in test [3], the IC50 worked out at 94 nM.

Turning to `N#Cc1cccnc1N1CCN(C(=O)c2ccc(Cl)c(C#Cc3ccccn3)c2)CC1` [Compound 389, 2-{4-[4-chloro-3-(pyridin-2-ylethynyl)benzoyl]piperazin-1-yl}nicotinonitrile], the Ki in test [1] (rat mGluR5 membranes) came to 63 nM. Also, the IC50 in test [3] stood at 239 nM.

Regarding `O=C(c1ccc(Cl)c(C#Cc2ccccn2)c1)N1CCN(c2nccs2)CC1` [Compound 390, 1-[4-chloro-3-(pyridin-2-ylethynyl)benzoyl]-4-(1,3-thiazol-2-yl)piperazine], the Ki in test [1] (rat mGluR5 membranes) was 7 nM. In addition, the IC50 in test [3] is 39 nM.

For `O=C(c1ccc(Cl)c(C#Cc2ccccn2)c1)N1CCN(c2ccncc2)CC1` [Compound 391, 1-[4-chloro-3-(pyridin-2-ylethynyl)benzoyl]-4-pyridin-4-ylpiperazine], in test [1] (rat mGluR5 membranes), the inhibitory constant (Ki) came to 79 nM. For the same compound, the IC50 in test [3] is 1490 nM.

Take `O=C(c1ccc(Cl)c(C#Cc2ccccn2)c1)N1CCN(c2cccc(O)c2)CC1` [Compound 393, 3-(4-{[4-chloro-3-(pyridin-2-ylethynyl)phenyl]carbonyl}piperazin-1-yl)phenol]: the Ki in test [1] (rat mGluR5 membranes) was 12 nM. This compound also yielded an IC50 in test [3] of 144 nM.

Regarding `O=C(c1ccc(Cl)c(C#Cc2ccccn2)c1)N1CCN(c2ncccc2Cl)CC1` [Compound 394, 1-(3-chloropyridin-2-yl)-4-{[4-chloro-3-(pyridin-2-ylethynyl)phenyl]carbonyl}piperazine], in test [1] (rat mGluR5 membranes), the Ki was 21 nM. This compound also gave an IC50 in test [3] of 145 nM.

On to `COc1cccc(N2CCN(C(=O)c3ccc(Cl)c(C#Cc4ccccn4)c3)CC2)c1` [Compound 395, 1-{[4-chloro-3-(pyridin-2-ylethynyl)phenyl]carbonyl}-4-(3-methoxyphenyl)piperazine], for which the Ki in test [1] (rat mGluR5 membranes) came to 19 nM. Besides, the IC50 in test [3] came out at 113 nM.

For `N#Cc1nccnc1N1CCN(C(=O)c2ccc(Cl)c(C#Cc3ccccn3)c2)CC1` [Compound 396, 3-(4-{[4-chloro-3-(pyridin-2-ylethynyl)phenyl]carbonyl}piperazin-1-yl)pyrazine-2-carbonitrile], the Ki in test [1] (rat mGluR5 membranes) was determined as 17 nM. Besides, in test [3], the IC50 turned out to be 47 nM.

A word on the Ki: it is the dissociation constant of the complex between target and ligand, obtained from inhibition or displacement. A word on the IC50: it is the concentration that inhibits the measured activity by half. Read a high IC50 as weaker potency.
